According to patent publication US20240148686A1, “PHARMACEUTICAL COMPOSITION OF FORSKOLIN-ISOFORSKOLIN AND PENTACYCLIC TRITERPENOID COMPOUND, AND APPLICATION THEREOF” (CHINA PHARMACEUTICAL UNIVERSITY, priority 2021, published 2024):
Marks after values point to notes of the source that are not given here.

What was measured:
[1] = system: chronic liver fibrosis model mice induced by CCl4; assay: Therapeutic effects on chronic liver fibrosis model induced by CCl4; type: in vivo, C57BL/6 mice; conditions: total 20 mg/kg intragastric once a day for 8 weeks, x±s
Experimental: (§1) Notes: Statistical analysis is conducted by the GraphPad Prism 8.0 statistical software, and statistical analysis results are analyzed by t-Test. Compared with a model group, *P<0.05 indicates a statistically-significant difference between the groups: **P<0.01, […], and ****P<0.0001.
140 C57 mice were selected and evenly divided into 14 groups with 10 mice per group, including a model group (M group), a forskolin group (F group), an isoforskolin group (IF group), an asiatic acid group (AA group), an asiaticoside group (AS group), an OA group (OA group), a betulinic acid group (BA group), a forskolin+asiatic acid combined administration group (F+AA group), a forskolin+asiaticoside combined administration group (F+AS group), forskolin+OA combined administration groups (low, medium, and high) (F+OA-1:4, 1:1, and 4:1 groups), a forskolin+betulinic acid combined administration group (F+BA group), and an isoforskolin+OA combined administration group (IF+OA group). Every Thursday and Sunday, all mice each were intraperitoneally injected with a 5% carbon tetrachloride (CCl4)-containing olive oil solution continuously for 8 weeks at an injection volume of 20 mL/kg to obtain a liver fibrosis model caused by chronic liver damage.
Administration mode: A drug was prepared with a 0.5% CMC-Na solution as a solvent into a suspension, and the suspension was intragastrically administered once a day continuously for 8 weeks.
(§2) The mice were administered with a drug continuously for 8 weeks, and after the last administration, the mice were fasted without water deprivation for 12 h; a body weight of each mouse was measured, eyeballs were removed, blood was collected, and a liver was taken out and weighed; and a part of the liver tissue was stored in 4% PFA, and another part of the liver tissue was stored in liquid nitrogen.
A blood sample was allowed to stand in a 4° C. refrigerator for 4 h and then centrifuged at 3,500 rpm for 10 min to 15 min; and a resulting supernatant was collected and tested by a kit to determine AST and ALT levels. The liver tissue stored in liquid nitrogen was homogenized and then centrifuged, and a resulting supernatant was collected and then tested by an enzyme-linked immunosorbent assay (ELISA) kit to determine a PCIII content. The liver tissue stored in 4% PFA was dehydrated, fixed, sectioned, and stained to obtain H&E-stained and Sirius red-stained slide specimens.

[2] = system: NAFLD model mice (obesity and fatty liver models induced by a high-fat diet); assay: Therapeutic effects on obesity and fatty liver (NAFLD) models induced by a high-fat diet; type: in vivo, C57 mice; conditions: for serum FFA content / serum TC content / hepatic TG content: fatty liver model mice, total 20 mg/kg intragastric once a day for 12 weeks, x±s; for serum FFA content / serum TC content: high-fat diet 12 weeks; for hepatic TG content: liver homogenate supernatant
Experimental: as §1
160 SPF-grade male C57 mice at 8 weeks to 9 weeks were adaptively raised for one week, and then 140 obese mice with a consistent body weight were selected and evenly divided into 14 groups with 10 mice per group, including a model group (M group), a forskolin group (F group), an isoforskolin group (IF group), an asiatic acid group (AA group), an asiaticoside group (AS group), an OA group (OA group), a betulinic acid group (BA group), a forskolin+asiatic acid combined administration group (F+AA group), a forskolin+asiaticoside combined administration group (F+AS group), forskolin+OA combined administration groups (low, medium, and high) (F+OA-1:4, 1:1, and 4:1 groups), a forskolin+betulinic acid combined administration group (F+BA group), and an isoforskolin+OA combined administration group (IF+OA group). The mice were fed by a high-fat diet (including 35% of fat, 26% of carbohydrates, and 26% of proteins) continuously for 12 weeks to establish obesity and fatty liver models, and during the modeling, a drug was intragastrically administered continuously for 12 weeks. The experimental animals were raised in ordinary mouse cages in an environment with a room temperature of 24±2° C., a humidity of 40% to 60%, and a 12 h light/12 h dark cycle.
Administration mode: A drug was prepared with a 0.5% CMC-Na solution as a solvent into a suspension, and the suspension was intragastrically administered once a day continuously for 12 weeks.
as §2, with “12” for “8”, “weighed;” for “weighed; and”, “paraformaldehyde (PFA),” for “PFA,”, “liquid nitrogen; and inguinal fat was collected from a right thigh of each mouse, weighed, and stored in liquid” for “liquid”
A blood sample was allowed to stand in a 4° C. refrigerator for 4 h and then centrifuged at 3,500 rpm for 10 min to 15 min; and a resulting supernatant was collected and tested by a blood bio-chemical analyzer to determine the FFA and TC levels in serum. The liver tissue stored in 4% PFA was frozen and sectioned, and then stained with oil red O to obtain slide specimens. The liver tissue stored in liquid nitrogen was homogenized and then centrifuged, and a resulting supernatant was collected and then tested by a kit to determine a TG content.

Molecule	serum ALT content [1]	serum AST content [1]	serum FFA content [2]	serum TC content [2]	hepatic TG content [2]	body weight increase (FIG. 1), in words ([2]; NAFLD model mice, total 20 mg/kg intragastric daily, 12 weeks)
C[C@H]1[C@H](C)CC[C@]2(C(=O)O)CC[C@]3(C)C(=CC[C@@H]4[C@@]5(C)C[C@@H](O)[C@H](O)[C@@](C)(CO)[C@@H]5CC[C@]43C)[C@H]12 [AA, Asiatic acid]	815 ± 53* U/L	399 ± 22* U/L	1.286 ± 0.143 mmol/L	7.26 ± 0.74 mmol/L	1.17 ± 0.12 mmol/L	–
C=C(C)[C@@H]1CC[C@]2(C(=O)O)CC[C@]3(C)[C@H](CC[C@@H]4[C@@]5(C)CC[C@H](O)C(C)(C)[C@@H]5CC[C@]43C)[C@@H]12 [BA, Betulinic acid]	849 ± 34 U/L	422 ± 45* U/L	1.245 ± 0.201 mmol/L	7.02 ± 0.63 mmol/L	1.10 ± 0.08 mmol/L	–
CC1(C)CC[C@]2(C(=O)O)CC[C@]3(C)C(=CC[C@@H]4[C@@]5(C)CC[C@H](O)C(C)(C)[C@@H]5CC[C@]43C)[C@@H]2C1 [OA, Oleanolic acid]	888 ± 53 U/L	436 ± 51 U/L	1.182 ± 0.113* mmol/L	6.84 ± 0.54* mmol/L	1.03 ± 0.09* mmol/L	–
Asiaticoside	882 ± 25 U/L	406 ± 63* U/L	1.238 ± 0.186* mmol/L	7.09 ± 0.34 mmol/L	1.18 ± 0.08 mmol/L	–
Forskolin	922 ± 32 U/L	447 ± 31 U/L	1.324 ± 0.124 mmol/L	7.44 ± 0.86 mmol/L	1.01 ± 0.07* mmol/L	can inhibit the increase of a body weight of mice similarly
